Patent publication US11300509B2, “Cleavable linkers for protein translation reporting” (9412-1126 Québec inc., priority 2020, dated 2022)
No end group written: not given here.

Legend:
Cherry1-10 = biological target: T1, Cherry1-10 (Discosoma sp., UniProt Q9U6Y8, A164R/C117E/F124L/F177V/H162N/H41T/I125L/I180T/K163Q/K83L/K92T/L150M/L174D/M182K/N42Q/Q66M/R153E/R17H/R36H/S179T/S197I/T21S/V127T/V156A/V175A/V44A/V71A/Y192A/Y194N); experiment: In vitro reconstitution of split Cherry: Cherry11 peptide mixed with Cherry1-10; type: binding
T1 construct: made in house; host or cells: Escherichia coli BL21(DE3)
Description: Fluorescence output was recorded every 0.1 seconds for a duration of 30 seconds.
In vitro fluorescence complementation was performed by mixing purified XFP1-10 protein and chemically synthesized XFP11 peptides and the fluorescence intensity of the reaction was collected with a StepOnePlus real-time thermal cycler (Thermo-Fisher). […] XFP1-10 in TNG buffer or PBS (varied pH) was added to wells of a 96-well microplate coated with 1 mM bovine serum albumin and allowed to equilibrate for 60 seconds. XFP11 peptide was added according to different final peptide concentrations and the microplate was immediately loaded into the fluorescence reader. The fluorescence intensity was measured every 10 seconds for 45 minutes at 32° C. or 37° C. with 495 nm excitation and 520 nm emission. The fluorescence intensity was normalized to the initial fluorescence intensity to express relative fluorescence increase upon fluorescence reconstitution. […] Standard curves for XFP fluorescence measurements were generated by either using reconstituted XFP or XFP purified from E. coli using GFP specific chromatography columns (Bio-Rad). XFP protein concentration was determined using the Bradford assay and absorbance readings at 280 nm with a NanoDrop 2000 (Thermo-Fisher). Samples were serially diluted (1:10 or 1:5) and 10 μL samples were imaged to reduce any non-linear fluorescence excitation effects. […]

GFP1-10 = biological target: T2, GFP1-10 (Aequorea victoria, UniProt P42212, A206V/E111V/F64L/F99S/I128T/I167V/I171V/K166T/M153T/N105K/Q80R/S205T/S30R/S65T/V163A/Y145F/Y39I); experiment: In vitro reconstitution (fluorescence complementation) of split GFP: GFP11 peptide mixed with purified GFP1-10; type: binding; set-up: half time of reconstitution: dose or concentration left out as unconfirmed; details: for observed rate constant (kobs) of GFP11 peptide binding: pseudo-first order
T2 construct: Residues 1-213 of GFP, corresponding to the first 10 beta strands of GFP (GFP1-10); made in house; host or cells: Escherichia coli BL21(DE3)
Description: FIGS. 1F-G, relating to the stoichiometric production of GFP11 reporter as a function of time using a PTR linker to allow instantaneous detection of protein translation, are graphs that illustrate that reconstitution of split GFP as a function of seconds passed. […] Within the first second of reconstitution, i.e., in milliseconds, fluorescence emission begins (FIG. 1F), and the fluorescence intensity of the reaction rose logarithmically and began to saturate after 5 minutes (FIG. 1G). […] To obtain kinetic measurements of the reconstitution reaction at sub-second timescales, an ultrasensitive fluorescence spectrophotometer was used. A stopped-flow dispenser was used to mix and deliver known volumes of GFP1-10 and GFP11 proteins. This allowed the establishment of a to for the moment split GFP components first interact. […] Fluorescence increase over time from the bimolecular reaction was modeled as pseudo-first order and fit to a one phase association curve to determine the observed rate constant (kobs) of GFP11 peptide binding for each concentration of GFP11 tested. For 50 nM GFP11 and excess GFP1-10, the kobs is 0.003 s-1.
In the volume of a medium-size cell, the slower, lowest concentration reactions would generate tens of reconstituted molecules per second, and for the average protein synthesis hundreds per second. […].
In vitro fluorescence complementation was performed by mixing purified XFP1-10 protein and chemically synthesized XFP11 peptides and the fluorescence intensity of the reaction was collected with a StepOnePlus real-time thermal cycler (Thermo-Fisher). […] XFP11 peptide was added according to different final peptide concentrations and the microplate was immediately loaded into the fluorescence reader. The fluorescence intensity was measured every 10 seconds for 45 minutes at 32° C. or 37° C. with 495 nm excitation and 520 nm emission. The fluorescence intensity was normalized to the initial fluorescence intensity to express relative fluorescence increase upon fluorescence reconstitution. […] Standard curves for XFP fluorescence measurements were generated by either using reconstituted XFP or XFP purified from E. coli using GFP specific chromatography columns (Bio-Rad). XFP protein concentration was determined using the Bradford assay and absorbance readings at 280 nm with a NanoDrop 2000 (Thermo-Fisher). Samples were serially diluted (1:10 or 1:5) and 10 μL samples were imaged to reduce any non-linear fluorescence excitation effects. […] Total fluorescence intensity (in photon counts) was collected every 0.1 s or 0.01 s for varying durations.
Pearson's linear correlations were calculated by fitting the data to a simple linear regression model, with the coefficient of determination, R2. […]

| Substance | onset of reconstitution upon addition of peptide (Cherry1-10; Cherry1-10 and Cherry11 in vitro, FIG. 3E) | fluorescence signal strength of reconstitution (Cherry1-10; compared with split GFP and split Dendra2) | observed rate constant (kobs) of GFP11 peptide binding (GFP1-10; 50 nM GFP11 and excess GFP1-10, one phase association fit) | half time of reconstitution (GFP1-10; one phase association fit, FIG. 1G) | observed rate constant (kobs) of GFP11 peptide binding (GFP1-10; one phase association fit, FIG. 1G, R2=0.99) | time to detection of green fluorescence upon mixing (GFP1-10; stopped-flow mixing of GFP1-10 and GFP11) |
| --- | --- | --- | --- | --- | --- | --- |
| Cherry11: small fragment of split mCherry red fluorescent protein; purified peptide that reconstitutes with Cherry1-10 (MGGGGSGGGGSYTIVEQYERAEGRHSTGG) | immediately | overall weaker signal compared to split GFP and split Dendra2 |  |  |  |  |
| RDHMVLHEYVNAAGIT [GFP11] |  |  | 0.003 s⁻¹ | 95 s | 0.007 ± 0.0001 s⁻¹ | ≤ 100 ms |
